In paper PMC7408072 (Pharmaceutics, 2020):
Peptide text beside a SMILES is read from it. * marks the point of attachment. 5TAMRA = CN(C)c1ccc2c(c1)Oc1cc(N(C)C)ccc1C21OC(=O)c2cc(C(=O)*)ccc21

Legend:
[1] = system: monocultures of primary bovine BCECs; experiment: Live cell peptide uptake; format: cell-based; settings: 1 h, 37 °C, live cell imaging; 100 µM TAMRA-NR2B9c, 50 µM Tat peptides (method) / 100 µM (Figure 4 legend)
Experimental: BCECs were obtained from a batch of isolated capillary fragments and cultured as described in Section 2.2. Following trypsinization on day 5, the BCECs were re-suspended in differentiation medium and 90,000/cm^2 seeded on collagen- and fibronectin-coated (both 10 µg/mL in PBS) LabTek® microscope slides (Merck, Søborg, Denmark). The cells were left in the incubator (10% CO2, 37 °C) for 48 h prior to use. […] The test solutions were removed and pre-warmed media containing 300 nM Hoechst and Lysotracker® (1:20,000; Thermo Fischer Scientific, Bedford, MA, USA) applied to the cells for 10 min at 37 °C. The cells were gently washed twice in 37 °C hHBSS and immediately imaged in FluoBrite medium (Thermo Fischer Scientific, Bedford, MA, USA). Images were captured using an Olympus IX-83 fluorescent microscope (Olympus, Hamburg, Germany) equipped with a Yokogawa CSU-X spinning disc unit (Yokogawa, Tokyo, Japan) and Andor iXon Ultra 897 camera (Oxford Instruments, Abingdon, Great Britain) using cellSens software (Olympus, Hamburg, Germany).

[2] = system: bovine BCEC monolayers co-cultured with rat astrocytes; experiment: Transport, membrane adherence and cell uptake quantified by TAMRA fluorescence (bovine model); format: in vitro ADME; settings: 3 h, 37 °C, N = 2-3, n = 3; for peptide adhering to the cell surface / peptide taken up by the cells (endothelial cells and astrocytes): 100 µM peptide, TAMRA fluorescence 542/568 nm, mean ± SEM; for peptide adhering to the cell surface: acetic acid buffer pH 3 wash fraction; for peptide taken up by the cells (endothelial cells and astrocytes): lysate fraction; for peptide transported across the barrier (abluminal content): 100 µM peptide luminal, 90 rpm, medium with 10% FBS, abluminal TAMRA fluorescence, compared to TAMRA-NR2B9c
Experimental: Transport across bovine or mouse BCEC monolayers co-cultured with rat astrocytes was carried out over 3 h at 37 °C with horizontal shaking (90 rpm). TEER was measured at room temperature using an Endohm 12 cup (World Precision Instruments, Sarasota, FL, USA) connected to a Millicell-ERS device (Millipore, Bedford, MA, USA). TEER was measured before application of the peptides and after each experiment. The bovine model had initial TEER values ranging from 771 to 1332 Ω·cm^2, whereas the mouse model had initial TEER values ranging from 136 to 217 Ω·cm^2.
TAMRA fluorescence was measured using a NovoStar fluorescence plate reader (BMG Labtech, Offenburg, Germany) with excitation/emission set to 542/568 nm. The transported peptide was calculated using standard curves ranging from 31 nM to 2 µM. All peptide standard curves were subjected to 3 h of incubation at 37 °C with horizontal shaking (90 rpm) in differentiation media withdrawn from BCECs co-cultured with rat astrocytes.
Two filters from each BCEC batch were subjected to quantification of the TAMRA-peptide adhering to the BCEC plasma membrane and peptide taken up by the BCECs and astrocytes. […] The peptide solutions were removed from the cells and the filters washed thrice with 37 °C hHBSS. To isolate the peptide fraction adhering to the plasma membrane, the BCECs were placed on ice and incubated with 300 µL ice-cold acetic acid buffer ([…], 1% BSA, pH 3) for 5 min. The acetic acid buffer solution was gently pipetted up and down twice prior to collection of 100 µL samples into a black clear-bottom 96-well plate for analysis. The remaining acetic acid buffer solution was removed from the luminal chamber and the cells washed thrice with ice-cold hHBSS. To isolate the peptide fraction being taken up by the BCECs and astrocytes, the filter inserts were cut out and 150 µL of ice-cold lysis buffer (10 mM Tris-HCl, 0.25 M sucrose, 1 mM EDTA, 1 mM ethylene-bis(oxyethylenenitrilo)tetraacetic acid tetrasodium (EGTA), 2% Tergitol™, Complete® inhibitor tablet) added prior to incubation for 10 min on ice. The cells were homogenized using a pellet pestle (Merck, St. Louis) and subjected to centrifugation at 10,000× g at 4 °C for 10 min. The 100 µL supernatant was transferred into a black clear-bottom 96-well plate. TAMRA fluorescence was measured using a NovoStar fluorescence plate reader (BMG Labtech, Offenburg, Germany) with excitation/emission set to 542/568 nm. The molar amount of membrane-adhered peptide and peptide taken up by the cells was calculated using standard curves freshly prepared in acetic acid buffer and lysis buffer, respectively, in concentrations ranging from 40 nM to 2.5 µM.

Tissue distribution = format: in vivo, NMRI mice
Experimental: Following 1 h of circulation, the mice were deeply anesthetized by i.p. injection of 0.05 mL/10 g body weight Ketaminol/Dexdormitor (2.25 mg ketamine/0.03 mg […] per 10 g body weight in 0.9% NaCl). The chest cage was opened and the mice transcardially perfused with 0.01 M PBS (pH 7.4) prior to isolation of the brain, heart, lungs, spleen, kidney, liver, and 2 cm of the upper part of the intestine. All tissues were immediately put on ice and kept at −80 °C until analysis.
The tissues were homogenized in 1 mL of ice-cold lysis buffer using a 7-mL Dounce tissue grinder set (Merck, St. Louis, MO, USA). Homogenates were left on ice for 10 min prior to centrifugation at 14,000× g and 4 °C for 10 min. Supernatants (100 µL) were transferred to a black clear-bottom 96-well plate for quantification of the TAMRA-peptides using a NovoStar fluorescence plate reader (BMG Labtech, Offenburg, Germany) with excitation and emission set to 542 and 568 nm, respectively. The molar peptide amounts were calculated using standard curves that were freshly prepared in lysates from relevant blank tissue at concentrations ranging from 30 nM to 2 µM.

[3] = 3 nmol/g i.v., 1 h, NMRI mice, comparison among the Tat-conjugates

Row | Structure (SMILES) | peptide uptake into live BCECs [1] | peptide adhering to the cell surface [2] | peptide taken up by the cells (endothelial cells and astrocytes) [2] | TAMRA fluorescence in the kidney (Tissue distribution; [3]) | tissue uptake at 1 h (Tissue distribution; male, NMRI, mouse, brain, iv, 3 nmol/g body weight, mice, tissue distribution (abstract), read-out: brain accumulation) [%ID/g] | peptide transported across the barrier (abluminal content) [2] | accumulation in the liver (Tissue distribution; [3]) | amount in mouse brain homogenate (Tissue distribution; 3 nmol peptide/g body weight, tail vein, 1 h circulation, perfused NMRI mice, TAMRA fluorescence in whole tissue homogenate, mean ± SD, N = 4-6) | accumulation in the intestines (Tissue distribution; [3]) | TAMRA fluorescence in the brain homogenates (comparison) (Tissue distribution; 3 nmol/g i.v., 1 h, NMRI mice, unpaired t-test)
1 | CC[C@H](C)[C@H](NC(=O)[C@H](CO)NC(=O)[C@H](CO)NC(=O)[C@H](CC(C)C)NC(=O)[C@H](CCCCN)NC(=O)c1ccc2c(c1)C(=O)OC21c2ccc(N(C)C)cc2Oc2cc(N(C)C)ccc21)C(=O)N[C@@H](CCC(=O)O)C(=O)N[C@@H](CO)C(=O)N[C@@H](CC(=O)O)C(=O)N[C@H](C(=O)O)C(C)C [TAMRA-NR2B9c] (5TAMRA-KLSSIESDV-OH) | No uptake | Minute amounts | Minute amounts |  |  |  |  |  |  | 
2 | CC[C@H](C)[C@H](NC(=O)CCOCCOCCN(CCOCCOCCC(=O)N[C@H](C(=O)N[C@@H](CCC(=O)O)C(=O)N[C@H](C(=O)N[C@@H](CC(=O)O)C(=O)N[C@H](C(=O)O)C(C)C)[C@@H](C)O)[C@@H](C)CC)C(=O)[C@H](CCCNC(=N)N)NC(=O)[C@H](CCCNC(=N)N)NC(=O)[C@H](CCCNC(=N)N)NC(=O)[C@H](CCC(N)=O)NC(=O)[C@H](CCCNC(=N)N)NC(=O)[C@H](CCCNC(=N)N)NC(=O)[C@H](CCCCN)NC(=O)[C@H](CCCCN)NC(=O)[C@H](CCCNC(=N)N)NC(=O)CNC(=O)[C@H](Cc1ccc(O)cc1)NC(=O)c1ccc2c(c1)C(=O)OC21c2ccc(N(C)C)cc2Oc2cc(N(C)C)ccc21)C(=O)N[C@@H](CCC(=O)O)C(=O)N[C@H](C(=O)N[C@@H](CC(=O)O)C(=O)N[C@H](C(=O)O)C(C)C)[C@@H](C)O [TAMRA-Tat-N-dimer] | taken up into vesicular structures to a similar extent | Minute amounts | Minute amounts | more fluorescence in the kidney than TAMRA-Tat or TAMRA-Tat-NR2B9c | 0.25 | No significant difference |  |  |  | 
3 | CC[C@H](C)[C@H](NC(=O)[C@H](CO)NC(=O)[C@H](CO)NC(=O)[C@H](CC(C)C)NC(=O)[C@H](CCCCN)NC(=O)[C@H](CCCNC(=N)N)NC(=O)[C@H](CCCNC(=N)N)NC(=O)[C@H](CCCNC(=N)N)NC(=O)[C@H](CCC(N)=O)NC(=O)[C@H](CCCNC(=N)N)NC(=O)[C@H](CCCNC(=N)N)NC(=O)[C@H](CCCCN)NC(=O)[C@H](CCCCN)NC(=O)[C@H](CCCNC(=N)N)NC(=O)CNC(=O)[C@H](Cc1ccc(O)cc1)NC(=O)c1ccc2c(c1)C(=O)OC21c2ccc(N(C)C)cc2Oc2cc(N(C)C)ccc21)C(=O)N[C@@H](CCC(=O)O)C(=O)N[C@@H](CO)C(=O)N[C@@H](CC(=O)O)C(=O)N[C@H](C(=O)O)C(C)C [TAMRA-Tat-NR2B9c] (5TAMRA-YGRKKRRQRRRKLSSIESDV-OH) | taken up into vesicular structures to a similar extent | Significantly larger amounts | Significantly larger amounts |  |  | to a greater extent than TAMRA-NR2B9c | to a greater extent than TAMRA-Tat and TAMRA-Tat-N-dimer |  |  | 
4 | CN(C)c1ccc2c(c1)Oc1cc(N(C)C)ccc1C21OC(=O)c2cc(C(=O)N[C@@H](Cc3ccc(O)cc3)C(=O)NCC(=O)N[C@@H](CCCNC(=N)N)C(=O)N[C@@H](CCCCN)C(=O)N[C@@H](CCCCN)C(=O)N[C@@H](CCCNC(=N)N)C(=O)N[C@@H](CCCNC(=N)N)C(=O)N[C@@H](CCC(N)=O)C(=O)N[C@@H](CCCNC(=N)N)C(=O)N[C@@H](CCCNC(=N)N)C(=O)N[C@@H](CCCNC(=N)N)C(=O)O)ccc21 [TAMRA-Tat] | taken up into vesicular structures to a similar extent | Significantly larger amounts | Significantly larger amounts |  |  | to a greater extent than TAMRA-NR2B9c |  | 0.4% ± 0.1% | superior | slightly higher levels
